Data on 17 compounds can be found in patent US9487489B2, “Halogen-substituted pyrazole derivatives as pest-control agents” (BAYER CROPSCIENCE AKTIENGESELLSCHAFT, priority 2013, dated 2016).

A short description of series [1]: logP determination by HPLC on a reversed-phase column (C18), EEC Directive 79/831 Annex V.A8. The class given is physicochemical. Put shortly:
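Retention on a C18 reversed-phase column (Zorbax Eclipse Plus, 1.8 micron) was used, eluting with acetonitrile/water, each containing formic acid. The gradient ran from 10% to 95% acetonitrile over 4.25 min, then held 1.25 min, at 55° C and 2.0 ml/min, with MS detection.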

In series [2] the test system is cattle ticks (Boophilus microplus) Parkhurst strain, SP-resistant. As to the kind of experiment: Boophilus microplus dip test (BOOPMI Dip). The class given is in vivo. Conditions: application rate 100 ppm, assessed after 7 days. Summed up:
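Adult engorged female SP-resistant Parkhurst ticks (8–10) were fully immersed in compound diluted in water from a DMSO solution, then kept in a climate-controlled room. After 7 days, fertile egg-laying was scored, with larval hatching checked at about 42 days; 100% efficacy means no fertile eggs.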

The test system of series [3] is adult cat fleas (Ctenocephalides felis). Kind of series: Ctenocephalides felis oral test (CTECFE). The class given is in vivo. The settings on record: application rate 100 ppm in citrated cattle blood; after 2 days. Summed up: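 About 20 unfed adult cat fleas fed through parafilm membrane on citrated cattle blood containing compound (DMSO stock diluted in blood to test concentration). Kill % scored after 2 days (100% = all fleas dead).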

The test system of series [4] is adult houseflies (Musca domestica). As to the kind of experiment: Musca domestica test (MUSCDO). The class given is in vivo. The settings on record: application rate 100 ppm; after 2 days. Put shortly:
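Compound dissolved in DMSO and diluted with water to the test concentration, applied with sugar solution on a sponge; 10 adult houseflies per vessel. Mortality scored after 2 days as % kill (100% all dead, 0% none).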

In series [5] the test system is green peach aphid (Myzus persicae). As to the kind of experiment: Myzus persicae spray test (MYZUPE). The class given is in vivo. Conditions: Chinese cabbage leaf discs, after 6 days. Summed up: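 Chinese cabbage leaf discs infested with all aphid stages sprayed with compound in acetone/DMF with alkylaryl polyglycol ether emulsifier in water. Efficacy (% aphids killed; 100% all dead, 0% none) scored after 6 days.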

Series [6] concerns larvae of the mustard beetle (Phaedon cochleariae). As to the kind of experiment: Phaedon cochleariae spray test (PHAECO). The class given is in vivo. Conditions: Chinese cabbage leaf discs, after 7 days. Summed up:
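Compound dissolved in acetone/dimethylformamide with alkylaryl polyglycol ether emulsifier, made up in water containing 1000 ppm emulsifier, then diluted to test concentrations and sprayed against mustard beetle larvae. Efficacy (% larvae killed) scored after 7 days.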

Series [7] deals with caterpillars of the armyworm (Spodoptera frugiperda). Kind of series: Spodoptera frugiperda spray test (SPODFR). Conditions: maize leaf discs, after 7 days. The class given is in vivo. Put shortly:
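Maize leaf discs sprayed with compound in acetone/DMF with alkylaryl polyglycol ether emulsifier (1000 ppm) in water, dried, then infested with armyworm caterpillars. Mortality (%) scored after 7 days; 100% = all caterpillars killed, 0% = none killed.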

Series [8] concerns bont tick nymphs (Amblyomma hebraeum). Conditions: after 48 h.
The mark [9] stands for this setting: HPLC on reversed-phase column (C18), acetonitrile/water with formic acid, EEC Directive 79/831 Annex V.A8.
Setting [10] is: HPLC, reversed-phase C18, acetonitrile (0.1% formic acid)/water (0.09% formic acid) gradient.

Structures are written as SMILES. Where “and” joins values, the source holds several entries; their conditions need not be identical. Equal values may be shown once.

For orientation: logP means the decadic logarithm of the partition coefficient of the neutral form, usually between octanol and water. With `Cn1nc(C(F)(F)C(F)(F)F)c(C(F)(F)F)c1-n1cc(-c2ccc(Cl)c(C(=O)NC3CC3F)c2)cn1` (centres unmarked) [Ic-81], in series [1] (setting [9]), the logP is reported as 3.8. Moreover, the “efficacy (laying of fertile eggs)” value in series [2] stood at 100%. Besides, the “efficacy (kill in %)” value in series [3] and in series [4] was 100% throughout. The figures for the efficacy in % in series [5] (application rate 100 g/ha), in series [6] (application rate 100 g/ha) and in series [7] (application rate 100 g/ha) were 90%, 100% and 100%, respectively. Also, the “efficacy (dead or moribund ticks)” value in series [8] is 100%.
Regarding `Cn1nc(C(F)(F)C(F)(F)F)c(C(F)(F)F)c1-n1cc(-c2ccc(Br)c(C(=O)NC3(C#N)CC3)c2)cn1` [Ic-34], the logP in series [1] (setting [9]) amounted to 3.74. In addition, in series [2], the “efficacy (laying of fertile eggs)” value worked out at 100%. Further, the “efficacy (kill in %)” value in series [3] and in series [4] was 100% in each case. For the same compound, the efficacy in % turned out to be 90% in series [5] (application rate 100 g/ha), 100% in series [6] (application rate 100 g/ha) and 100% in series [7] (application rate 100 g/ha).
Turning to `Cn1nc(C(F)(F)C(F)(F)F)c(C(F)(F)F)c1-n1ccc(-c2ccc(Cl)c(C(=O)NC3CC3)c2)c1` [Ia-2], the logP in series [1] (setting [10]) was 4.08. For the same compound, the “efficacy (laying of fertile eggs)” value in series [2] was 100%. The figures for the “efficacy (kill in %)” value in series [3] and in series [4] were 100% and 90%, respectively. Also, the efficacy in % in series [6] (application rate 100 g/ha) and in series [7] (application rate 100 g/ha) was 100% each time. For the same compound, the “efficacy (dead or moribund ticks)” value in series [8] is 100%.
Consider `Cc1ncc(-c2cnn(-c3c(C(F)(F)F)c(C(F)(F)C(F)(F)F)nn3C)c2)cc1C(=O)NC1CC1` [Ic-84], for which the “efficacy (laying of fertile eggs)” value in series [2] came to 100%. The “efficacy (kill in %)” value in series [3] and in series [4] was 100% throughout. The efficacy in % in series [5] (application rate 500 g/ha), in series [6] (application rate 500 g/ha) and in series [7] (application rate 500 g/ha) was 100% in each case. The “efficacy (dead or moribund ticks)” value in series [8] was determined as 100%.
The compound `Cn1nc(C(F)(F)C(F)(F)F)c(C(F)(F)F)c1-n1cc(-c2cc(F)c(Cl)c(C(=O)NC3(C#N)CC3)c2)cn1` [Ic-27] showed a logP in series [1] (setting [9]) of 3.87. For the same compound, the “efficacy (laying of fertile eggs)” value in series [2] was 100%. Also, the “efficacy (kill in %)” value in series [3] and in series [4] was 100% throughout. Further, the efficacy in % turned out to be 90% in series [5] (application rate 500 g/ha), 100% in series [6] (application rate 500 g/ha) and 100% in series [7] (application rate 500 g/ha).
Take `Cn1nc(C(F)(F)C(F)(F)F)c(C(F)(F)F)c1-n1cc(-c2ccc(F)c(C(=O)NC3CC3)c2)cn1` [Ic-37]: the logP in series [1] (setting [9]) turned out to be 3.79. Moreover, the “efficacy (laying of fertile eggs)” value in series [2] was 100%. For the same compound, the “efficacy (kill in %)” value in series [3] and in series [4] was 100% each time. The efficacy in % in series [6] (application rate 100 g/ha) and in series [7] (application rate 100 g/ha) was 100% throughout. Moreover, the “efficacy (dead or moribund ticks)” value in series [8] stood at 100%.
Regarding `Cn1nc(C(F)(F)C(F)(F)F)c(C(F)(F)F)c1-n1cc(-c2ccc(Cl)c(C(=O)NC3(C#N)CC3)c2)cn1` [Ic-2], the logP in series [1] (setting [9]) is recorded as 3.72. Further, the “efficacy (laying of fertile eggs)” value in series [2] is listed as 100%. Also, the “efficacy (kill in %)” value in series [3] and in series [4] was 100% throughout. In addition, the efficacy in % in series [5] (application rate 100 g/ha), in series [6] (application rate 100 g/ha) and in series [7] (application rate 100 g/ha) was 100% each time. Further, in series [8], the “efficacy (dead or moribund ticks)” value is 100%.
In series [1] (setting [9]), `CN(C(=O)c1cc(-c2cnn(-c3c(C(F)(F)F)c(C(F)(F)C(F)(F)F)nn3C)c2)ccc1Cl)C1(C#N)CC1` [Ic-96] yielded a logP of 4.1. Also, in series [2], the “efficacy (laying of fertile eggs)” value came to 100%. In addition, the “efficacy (kill in %)” value in series [3] and in series [4] was 100% throughout. Besides, the efficacy in % in series [5] (application rate 100 g/ha), in series [6] (application rate 100 g/ha) and in series [7] (application rate 100 g/ha) was 100% in each case.
Consider `Cn1nc(C(F)(F)C(F)(F)F)c(C(F)(F)F)c1-n1cc(-c2ccc(Cl)c(C(=O)NCC(F)(F)F)c2)cn1` [Ic-23], for which, in series [1] (setting [9]), the logP turned out to be 4.17. For the same compound, in series [2], the “efficacy (laying of fertile eggs)” value is 100%. The “efficacy (kill in %)” value in series [3] and in series [4] was 100% each time. Also, the efficacy in % in series [6] (application rate 100 g/ha) and in series [7] (application rate 100 g/ha) was 100% each time. For the same compound, the “efficacy (dead or moribund ticks)” value in series [8] came out at 100%.
Regarding `Cn1nc(C(F)(F)C(F)(F)F)c(C(F)(F)F)c1-n1ccc(-c2ccc(Cl)c(C(=O)NC3(C#N)CC3)c2)c1` [Ia-1], in series [1] (setting [10]), the logP came to 3.99. Also, in series [2], the “efficacy (laying of fertile eggs)” value is recorded as 100%. Moreover, the “efficacy (kill in %)” value in series [3] is on record as 100%; in series [4], 80%. The efficacy in % in series [6] (application rate 100 g/ha) and in series [7] (application rate 100 g/ha) was 100% in each case. In series [8], the “efficacy (dead or moribund ticks)” value worked out at 100%.
As to `Cn1nc(C(F)(F)C(F)(F)F)c(C(F)(F)F)c1-n1cnc(-c2ccc(Cl)c(C(=O)NC3CC3)c2)c1` [Ib-3], the logP in series [1] (setting [10]) was 3.43. Also, the “efficacy (laying of fertile eggs)” value in series [2] is 100%. The “efficacy (kill in %)” value in series [3] and in series [4] was 100% throughout. Moreover, the efficacy in % in series [6] (application rate 100 g/ha) and in series [7] (application rate 100 g/ha) was 100% in each case. Also, the “efficacy (dead or moribund ticks)” value in series [8] is 100% and 80%.
Compound `Cn1nc(C(F)(F)C(F)(F)F)c(C(F)(F)F)c1-n1cc(-c2ccc(Cl)c(C(=O)NCC(F)F)c2)cn1` [Ic-78] yielded a logP in series [1] (setting [9]) of 3.86. Moreover, the “efficacy (laying of fertile eggs)” value in series [2] amounted to 100%. Besides, the “efficacy (kill in %)” value in series [3] and in series [4] was 100% throughout. Besides, the efficacy in % turned out to be 90% in series [5] (application rate 100 g/ha), 100% in series [6] (application rate 100 g/ha) and 100% in series [7] (application rate 100 g/ha).
Turning to `Cn1nc(C(F)(F)C(F)(F)F)c(C(F)(F)F)c1-n1cc(-c2cc(Cl)c(Cl)c(C(=O)NC3CC3)c2)cn1` [Ic-94], in series [2], the “efficacy (laying of fertile eggs)” value stood at 100%. For the same compound, the “efficacy (kill in %)” value in series [3] and in series [4] was 100% in each case. Moreover, the efficacy in % in series [5] (application rate 500 g/ha), in series [6] (application rate 500 g/ha) and in series [7] (application rate 500 g/ha) was 100% in each case. Besides, the “efficacy (dead or moribund ticks)” value in series [8] is 100%.
The compound `Cn1nc(C(F)(F)C(F)(F)F)c(C(F)(F)F)c1-n1cc(-c2ccc([N+](=O)[O-])c(C(=O)NC3CC3)c2)cn1` [Ic-66] yielded a logP in series [1] (setting [9]) of 3.53. Further, in series [2], the “efficacy (laying of fertile eggs)” value is 100%. Also, the “efficacy (kill in %)” value in series [3] and in series [4] was 100% in each case. The values for the efficacy in % in series [5] (application rate 100 g/ha), in series [6] (application rate 100 g/ha) and in series [7] (application rate 100 g/ha) were 90%, 100% and 100%, respectively.
For `Cn1nc(C(F)(F)C(F)(F)F)c(C(F)(F)F)c1-n1cc(-c2cc(F)c(Cl)c(C(=O)NC3CC3)c2)cn1` [Ic-24], the logP in series [1] (setting [9]) came to 3.90. The “efficacy (laying of fertile eggs)” value in series [2] is 100%. The “efficacy (kill in %)” value in series [3] and in series [4] was 100% each time. The efficacy in % in series [5] (application rate 500 g/ha) is 90%; in series [6] (application rate 500 g/ha), 100%; in series [7] (application rate 500 g/ha), 100%.
Take `Cn1nc(C(F)(F)C(F)(F)F)c(C(F)(F)F)c1-n1cc(-c2ccc(Cl)c(C(=O)NC3(C(N)=S)CC3)c2)cn1` [Ic-11]: in series [1] (setting [9]), the logP was 3.59. Moreover, the “efficacy (laying of fertile eggs)” value in series [2] came to 100%. Further, the “efficacy (kill in %)” value in series [3] and in series [4] was 100% in each case. For the same compound, the efficacy in % in series [5] (application rate 100 g/ha), in series [6] (application rate 100 g/ha) and in series [7] (application rate 100 g/ha) was 100% throughout. Moreover, in series [8], the “efficacy (dead or moribund ticks)” value is given as 100%.
In series [1] (setting [9]), `Cn1nc(C(F)(F)C(F)(F)F)c(C(F)(F)F)c1-n1cc(-c2ccc(F)c(C(=O)NC3(C#N)CC3)c2)cn1` [Ic-36] showed a logP of 3.69. In series [2], the “efficacy (laying of fertile eggs)” value is listed as 100%. The “efficacy (kill in %)” value in series [3] and in series [4] was 100% throughout. The results for the efficacy in % in series [5] (application rate 100 g/ha), in series [6] (application rate 100 g/ha) and in series [7] (application rate 100 g/ha) were 90%, 100% and 100%, respectively.
